Molecules are shown by their SMILES.

We go through one compound from publication PMC10223062, “Discovery of Novel Thiophene/Hydrazones: In Vitro and In Silico Studies against Pancreatic Cancer” (Pharmaceutics, 2023).

In the assay the target is T1, 5-LOX (Homo sapiens, UniProt P09917).
T1 construct: purchased MyBioSource
T1 sequence (P09917 1-674): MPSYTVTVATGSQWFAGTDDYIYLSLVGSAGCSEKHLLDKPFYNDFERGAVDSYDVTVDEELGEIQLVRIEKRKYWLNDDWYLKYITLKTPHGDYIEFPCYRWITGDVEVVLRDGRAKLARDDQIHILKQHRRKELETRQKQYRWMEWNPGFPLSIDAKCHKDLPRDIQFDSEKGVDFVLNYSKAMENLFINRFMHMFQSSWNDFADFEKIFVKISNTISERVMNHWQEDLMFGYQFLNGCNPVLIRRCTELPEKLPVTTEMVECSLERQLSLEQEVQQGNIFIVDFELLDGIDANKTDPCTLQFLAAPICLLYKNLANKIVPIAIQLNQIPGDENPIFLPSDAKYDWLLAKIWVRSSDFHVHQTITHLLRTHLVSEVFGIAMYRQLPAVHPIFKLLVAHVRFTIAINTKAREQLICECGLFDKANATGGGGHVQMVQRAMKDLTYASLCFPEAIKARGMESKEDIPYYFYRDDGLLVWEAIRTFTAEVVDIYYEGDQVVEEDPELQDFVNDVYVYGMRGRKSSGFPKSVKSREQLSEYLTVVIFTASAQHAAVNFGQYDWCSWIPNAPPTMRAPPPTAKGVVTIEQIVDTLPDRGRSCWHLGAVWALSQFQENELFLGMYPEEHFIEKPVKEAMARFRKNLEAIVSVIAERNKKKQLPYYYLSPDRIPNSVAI
As to the kind of experiment: Fluorometric 5-LOX inhibitor screening kit. It counts as biochemical. As to conditions: at 10 µM. The protocol:
COX-1 and COX-2 inhibitory activities were tested using fluorometric COX-1 and COX-2 inhibitor screening kits (Abcam, United Kingdom), and the 5-LOX inhibitory activity was tested using a fluorometric 5-LOX inhibitor screening kit (MyBioSource, USA). These assays are based on the fluorometric detection of Prostaglandin G2 (a product generated by the COX enzyme) or on the fluorometric detection of the intermediate generated by the 5-LOX enzyme. The experiments were conducted in accordance with the manufacturers’ instructions.
For the determination of 5-LOX inhibitory activity, tested compounds were dissolved in DMSO (5 mM stock solution) and then diluted with the same solvent to obtain the test solutions. Test solutions were added to wells in an amount of 2 µL in the final 100 µL reaction volume. […] EC, SC, IC, and all test solutions were analyzed in triplicate.

Take `CC(c1cc2ccccc2s1)N(O)C(N)=O` (stereo not shown) [Zileuton, reference compound]: the “5-LOX Percent of İnhibition” value was determined as 64.85 ± 0.39%.
